Reference: patent US10081737B2, “Method for producing curing agent of coating and its application on coating” (SHANGHAI YAO HE BIOCHEMICAL TECHNOLOGY CO., LTD., priority 2016, dated 2018)

What was measured:
Assay type in all cases: physicochemical
[1] = Heat resistance of coating films, 220° C., 15 min; conditions: color difference compared with the color at 200° C., 10 min; less color differences indicate better properties
Description: (§1) To verify properties of the product of the invention, APLUS101, APLUS102, HAA and TGIC are individually mixed with the polyester powder and additives. These curing agents are added in amounts of 2-8 wt % of the polyester powder coatings.
(§2) The coatings are tested in the form of films and the tests are carried out in the same conditions.

[2] = MEK resistance tests, 24 h, gloss loss of coating films; conditions: coating film containing the named curing agent
Description: as §1, §2

[3] = QUV-A tests, 500 h, gloss retention of coating films; conditions: coating film containing the named curing agent
Description: as §1, §2

[4] = Flow and leveling of the powder coatings; conditions: polyester powder coating containing the named curing agent
Description: as §1, §2

[5] = Neutral salt-spray tests, 300 h, on coating films; conditions: corrosion of the coating film; cell text wraps over r6-r8 (Slight corrosion / No corrosion)
Description: as §1, §2

[6] = Gloss of the polyester powder coating films; conditions: polyester powder coating film containing the named curing agent (compositions of Table 1)
Description: as §1, §2

O=C(CCCCC(=O)N(CCO)CCO)N(CCO)CCO [HAA, N,N,N′,N′-Tetrakis (2-hydroxyethyl)adipamide]
Heat resistance, 220° C., 15 min [1]: 1.15
MEK resistance tests, 24 h, gloss loss (%) [2]: 8.16%
QUV-A tests, 500 h, gloss retention (%) [3]: 72.7%
Flow and leveling (cm) [4]: 3.1 cm
Neutral salt-spray tests, 300 h [5]: Slight
Gloss of the films [6]: 84.5

O=c1n(CC2CO2)c(=O)n(CC2CO2)c(=O)n1CC1CO1 (stereo not drawn) [TGIC, 1,3,5-Triglycidyl isocyanurate]
Heat resistance, 220° C., 15 min [1]: 0.59
MEK resistance tests, 24 h, gloss loss (%) [2]: 10.25%
QUV-A tests, 500 h, gloss retention (%) [3]: 75.8%
Flow and leveling (cm) [4]: 3.8 cm
Neutral salt-spray tests, 300 h [5]: Slight
Gloss of the films [6]: 87.6
